Marks after values point to notes of the source that are not given here.
Legend:
[1] = tested on: B (D197N) virus (B/Singapore/GP702/2015); set-up: species or system ferret; AUC (total area under the viral shedding curve, raw data): unit not given beside the values; settings: in vivo
[2] = tested on: B (H273Y) virus (B/Perth/265/2015); set-up: species or system ferret; AUC (total area under the viral shedding curve, raw data): unit not given beside the values; settings: in vivo
[3] = tested on: H1N1pdm09 (H275Y) virus (A/Perth/261/2009); set-up: species or system ferret; AUC (total area under the viral shedding curve, raw data): unit not given beside the values; settings: in vivo
[4] = tested on: H3N2 (E119V) virus (A/Fukui/45/2004); set-up: species or system ferret; AUC (total area under the viral shedding curve, raw data): unit not given beside the values; settings: in vivo
H1N1pdm09 (H275Y) virus = tested on: H1N1pdm09 (H275Y) virus; set-up: species or system Cynomolgus macaques (Macaca fascicularis); settings: cynomolgus monkey, in vivo
[5] = tested on: H1N1 (H275Y) virus (A/Mississippi/3/2001 clone); set-up: species or system ferret; AUC (total area under the viral shedding curve, raw data): unit not given beside the values; settings: in vivo

CCOC(=O)C1=C[C@@H](OC(CC)CC)[C@H](NC(C)=O)[C@@H](N)C1 [OST, oseltamivir]
% Ferrets Infected [1]: 100 (4/4) %
AUC (total area under the viral shedding curve, raw data) [1]: 12.6 ± 2.3
Activity loss clinical score [1]: 1 (key: ≤20; 21–40; 2: 41–60; 3: >60)
Duration of Shedding [1]: 4.2 ± 1.0 days
Nasal inflammation Cell score [1]: 0 (key: <1X10^6; 1 to 2 x10^6; 2.1 to 4 x10^6; 3: >4x10^6)
Nasal inflammation Protein score [1]: 0 (key: <500; 500–1000; 2: 1001–1500; 3: >1500)
Peak Viral Titre [1]: 4.5 ± 0.5 Log10 TCID50/ml
Temperature clinical score [1]: 0 (key: 0: <1; 1.1–1.5; 1.5–2.0; 3: >2.0)
Total Score (clinical signs) [1]: 1
Weight loss clinical score [1]: 0
viral titre on the single day with significant difference to placebo [1]: 4.1 ± 0.4 Log10 TCID50/ml
% Ferrets Infected [2]: 100 (4/4) %
AUC (total area under the viral shedding curve, raw data) [2]: 13.5 ± 1.0
Activity loss clinical score [2]: 1 (key: ≤20; 21–40; 2: 41–60; 3: >60)
Duration of Shedding [2]: 5.2 ± 0.5 days
Nasal inflammation Cell score [2]: 0 (key: <1X10^6; 1 to 2 x10^6; 2.1 to 4 x10^6; 3: >4x10^6)
Nasal inflammation Protein score [2]: 0 (key: <500; 500–1000; 2: 1001–1500; 3: >1500)
Peak Viral Titre [2]: 3.8 ± 0.6 Log10 TCID50/ml
Temperature clinical score [2]: 0 (key: 0: <1; 1.1–1.5; 1.5–2.0; 3: >2.0)
Total Score (clinical signs) [2]: 1
Weight loss clinical score [2]: 0
% Ferrets Infected [3]: 100 (4/4) %
AUC (total area under the viral shedding curve, raw data) [3]: 23.4 ± 4.4
Activity loss clinical score [3]: 3 (key: ≤20; 21–40; 2: 41–60; 3: >60)
Duration of Shedding [3]: 6.0 ± 1.4 days
Nasal inflammation Cell score [3]: 3 (key: <1X10^6; 1 to 2 x10^6; 2.1 to 4 x10^6; 3: >4x10^6)
Nasal inflammation Protein score [3]: 3 (key: <500; 500–1000; 2: 1001–1500; 3: >1500)
Peak Viral Titre [3]: 5.2 ± 0.6 Log10 TCID50/ml
Temperature clinical score [3]: 3 (key: 0: <1; 1.1–1.5; 1.5–2.0; 3: >2.0)
Total Score (clinical signs) [3]: 15
Weight loss clinical score [3]: 3 (key: 0: Weight increase or no change; 1–3; 2: 3–6; 3: >6)
% Ferrets Infected [4]: 62 (5/8) %
AUC (total area under the viral shedding curve, raw data) [4]: 6.0 ± 7.7
Activity loss clinical score [4]: 0 (key: ≤20; 21–40; 2: 41–60; 3: >60)
Duration of Shedding [4]: 3.8 ± 0.5 days
Nasal inflammation Cell score [4]: 0 (key: <1X10^6; 1 to 2 x10^6; 2.1 to 4 x10^6; 3: >4x10^6)
Nasal inflammation Protein score [4]: 0 (key: <500; 500–1000; 2: 1001–1500; 3: >1500)
Peak Viral Titre [4]: 4.8 ± 0.4 Log10 TCID50/ml
Temperature clinical score [4]: 0 (key: 0: <1; 1.1–1.5; 1.5–2.0; 3: >2.0)
Total Score (clinical signs) [4]: 0
Weight loss clinical score [4]: 0
body weight or temperature, OST- vs placebo-treated animals (H1N1pdm09 (H275Y) virus): no significant differences
lower viral titre in tracheal lavages of OST dosed macaques on Day 3 (H1N1pdm09 (H275Y) virus): not observed
viral titres in nasal wash and tracheal lavages, OST vs placebo (H1N1pdm09 (H275Y) virus): not significantly different
% Ferrets Infected [5]: 100 (4/4) %
AUC (total area under the viral shedding curve, raw data) [5]: 18.2 ± 4.3
Activity loss clinical score [5]: 3 (key: ≤20; 21–40; 2: 41–60; 3: >60)
Duration of Shedding [5]: 5.2 ± 1.25 days
Nasal inflammation Cell score [5]: 1 (key: <1X10^6; 1 to 2 x10^6; 2.1 to 4 x10^6; 3: >4x10^6)
Nasal inflammation Protein score [5]: 0 (key: <500; 500–1000; 2: 1001–1500; 3: >1500)
Peak Viral Titre [5]: 4.6± 0.5 Log10 TCID50/ml
Temperature clinical score [5]: 2 (key: 0: <1; 1.1–1.5; 1.5–2.0; 3: >2.0)
Total Score (clinical signs) [5]: 7
Weight loss clinical score [5]: 1 (key: 0: Weight increase or no change; 1–3; 2: 3–6; 3: >6)

Source: PMC7326275 (PLoS Pathogens, 2020)
